Patent US9663460B2, “Sulfur derivatives as chemokine receptor modulators” (ALLERGAN, INC., priority 2010, dated 2017)

biological target: CCR2 (Homo sapiens (Human), UniProt P41597); assay: Calcium activity assayed on the FLIPR Tetra in HEK-Gqi5 cells stably expressing CCR2; type: cell-based; details: FLIPR Tetra calcium assay
Protocol: HEK-Gqi5 cells stably expressing CCR2 were cultured in (DMEM high glucose, 10% FBS, 1% PSA, 400 μg/ml geneticin and 50 μg/ml hygromycin. Appropriate positive control chemokines (MCP-1, MIP1A or RANTES) was used as the positive control agonist for screening compound-induced calcium activity assayed on the FLIPR^Tetra. The drug plates were prepared in 384-well microplates using the EP3 and the MuItiPROBE robotic liquid handling systems. Compounds were synthesized and tested for CCR^2 activity.

Chain of CCR2 (P41597 whole entry, species assumed): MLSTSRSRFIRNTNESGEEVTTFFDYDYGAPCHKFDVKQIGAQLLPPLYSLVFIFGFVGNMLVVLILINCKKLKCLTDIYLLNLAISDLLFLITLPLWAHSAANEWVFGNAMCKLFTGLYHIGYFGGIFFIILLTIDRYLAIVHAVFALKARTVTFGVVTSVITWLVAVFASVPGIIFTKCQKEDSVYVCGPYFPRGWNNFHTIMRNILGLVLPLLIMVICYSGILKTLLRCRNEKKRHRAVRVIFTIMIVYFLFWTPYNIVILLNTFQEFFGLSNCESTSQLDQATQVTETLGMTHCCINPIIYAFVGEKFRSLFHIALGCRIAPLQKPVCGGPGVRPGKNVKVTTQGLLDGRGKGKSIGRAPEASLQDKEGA

| Structure (SMILES) | CCR2 % ANTAGONISM [%] | IC50 [nM] |
| --- | --- | --- |
| Nc1cc(C[S+]([O-])c2ccc(Cl)cc2NS(=O)(=O)c2cc3ccccc3o2)n[nH]1 (stereo not drawn) [N-(2-{[(5-amino-1H-pyrazol-3-yl)methyl]sulfinyl}-5-chlorophenyl)-1-benzofuran-2-sulfonamide] | 99 | 1380 |
| Nc1cc(CS(=O)(=O)c2ccc(Cl)cc2NS(=O)(=O)c2cc3ccccc3o2)n[nH]1 [N-(2-{[(5-amino-1H-pyrazol-3-yl)methyl]sulfonyl}-5-chlorophenyl)-1-benzofuran-2-sulfonamide] | 98 | 1870 |
| Nc1nnc(C[S+]([O-])c2ccc(Cl)cc2NS(=O)(=O)c2cc3ccccc3o2)[nH]1 (stereo not drawn) [N-(2-{[(5-amino-4H-1,2,4-triazol-3-yl)methyl]sulfinyl}-5-chlorophenyl)-1-benzofuran-2-sulfonamide] | 48 |  |
| O=S(=O)(Nc1cc(Cl)ccc1[S+]([O-])CCc1cn[nH]c1)c1cc2ccccc2o1 (stereo not drawn) [N-(5-chloro-2-{[2-(1H-pyrazol-4-yl)ethyl]sulfinyl}phenyl)-1-benzofuran-2-sulfonamide] | 67 | 1060 |
| O=S(=O)(CCc1cn[nH]c1)c1ccc(Cl)cc1NS(=O)(=O)c1cc2ccccc2o1 [N-(5-chloro-2-{[2-(1H-pyrazol-4-yl)ethyl]sulfonyl}phenyl)-1-benzofuran-2-sulfonamide] | 93 | 570 |
| O=S(=O)(Nc1cc(Cl)ccc1SCCc1cn[nH]c1)c1cc2ccccc2o1 [N-(5-chloro-2-{[2-(1H-pyrazol-4-yl)ethyl]thio}phenyl)-1-benzofuran-2-sulfonamide] | 91 | 412 |
| Cc1n[nH]c(C)c1CC[S+]([O-])c1ccc(Cl)cc1NS(=O)(=O)c1cc2ccccc2o1 (stereo not drawn) [N-(5-chloro-2-{[2-(3,5-dimethyl-1H-pyrazol-4-yl)ethyl]sulfinyl}phenyl)-1-benzofuran-2-sulfonamide] | 83 | 3050 |
| Cc1n[nH]c(C)c1CCS(=O)(=O)c1ccc(Cl)cc1NS(=O)(=O)c1cc2ccccc2o1 [N-(5-chloro-2-{[2-(3,5-dimethyl-1H-pyrazol-4-yl)ethyl]sulfonyl}phenyl)-1-benzofuran-2-sulfonamide] | 96 | 1090 |

The remaining molecules from weak to strong by IC50, led by results:

| CCR2 % ANTAGONISM [%] | IC50 [nM] | Structure (SMILES) |
| --- | --- | --- |
| 95 | 264 | Nc1cccc(CS(=O)(=O)c2ccc(Cl)cc2NS(=O)(=O)c2cc3ccccc3o2)[n+]1[O-] [N-(2-{[(6-amino-1-oxidopyridin-2-yl)methyl]sulfonyl}-5-chlorophenyl)-1-benzofuran-2-sulfonamide] |
| 103 | 32 | Nc1nnc(CSc2ccc(Cl)cc2NS(=O)(=O)c2cc3ccccc3o2)[nH]1 [N-(2-{[(5-amino-4H-1,2,4-triazol-3-yl)methyl]thio}-5-chlorophenyl)-1-benzofuran-2-sulfonamide] |
| 94 | 32 | Nc1cccc(CSc2ccc(Cl)cc2NS(=O)(=O)c2cc3ccccc3o2)n1 [N-(2-{[(6-aminopyridin-2-yl)methyl]thio}-5-chlorophenyl)-1-benzofuran-2-sulfonamide] |
| 99 | 28 | Nc1cccc(C[S+]([O-])c2ccc(Cl)cc2NS(=O)(=O)c2cc3ccccc3o2)n1 (stereo not drawn) [N-(2-{[(6-aminopyridin-2-yl)methyl]sulfinyl}-5-chlorophenyl)-1-benzofuran-2-sulfonamide] |
| 105 | 25 | Nc1cc(CSc2ccc(Cl)cc2NS(=O)(=O)c2cc3ccccc3o2)n[nH]1 [N-(2-{[(5-amino-1H-pyrazol-3-yl)methyl]thio}-5-chlorophenyl)-1-benzofuran-2-sulfonamide] |
| 102 | 15 | Nc1cccc(CS(=O)(=O)c2ccc(Cl)cc2NS(=O)(=O)c2cc3ccccc3o2)n1 [N-(2-{[(6-aminopyridin-2-yl)methyl]sulfonyl}-5-chlorophenyl)-1-benzofuran-2-sulfonamide] |
